# Measurements: ChEMBL document CHEMBL1201862, “PubChem BioAssay data set” (2004)
#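 48-hour exposure; five concentrations; linearly interpolated endpoints. Abbreviation: GI50, concentration required for 50% inhibition of growth.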 Calls of active or inactive are those of the source. No stated cut-off is given here; in the data, active = GI50 up to about 1.1 µM and inactive = higher.
# How the values were obtained:
# Test in all cases: DTP human tumour cell line panel, 48 h
# [1] = test system: UACC-257
# [2] = test system: OVCAR-5
# [3] = test system: SNB-75
# [4] = test system: COLO 205
# [5] = test system: K562
# [6] = test system: A549
# [7] = test system: U-251
# [8] = test system: CCRF-CEM
# [9] = test system: SN12C
# [10] = test system: SW-620
# [11] = test system: SNB-19
# [12] = test system: UO-31
# [13] = test system: MOLT-4
# [14] = test system: EKVX
# [15] = test system: OVCAR-8
# [16] = test system: RPMI-8226
# [17] = test system: NCI-H460
# [18] = test system: HCT-15
# [19] = test system: NCI-H23
# [20] = test system: HT-29
Structure (SMILES),GI50 [1],GI50 [2],GI50 [3],GI50 [4],GI50 [5],GI50 [6],GI50 [7],GI50 [8],GI50 [9],GI50 [10],GI50 [11],GI50 [12],GI50 [13],GI50 [14],GI50 [15],GI50 [16],GI50 [17],GI50 [18],GI50 [19],GI50 [20]
COc1ccc(C2=NN(c3nsc4ccccc34)C(=O)CC2)cc1,> 100 µM (inactive),> 100 µM (inactive),84.3 µM (inactive),> 100 µM (inactive),36 µM (inactive),> 100 µM (inactive),91.4 µM (inactive),82.6 µM (inactive),> 100 µM (inactive),> 100 µM (inactive),76 µM (inactive),59.2 µM (inactive),44 µM (inactive),55.2 µM (inactive),> 100 µM (inactive),30.5 µM (inactive),62.7 µM (inactive),57.9 µM,> 100 µM (inactive),> 100 µM (inactive)
CC1CC(NC2CCCCC2)=Nc2ccccc2N1Cc1ccccc1 (stereo not given),3.45 µM (inactive),5.09 µM (inactive),0.417 µM (active),4.35 µM (inactive),1.73 µM (inactive),4.43 µM (inactive),7.16 µM (inactive),4.13 µM (inactive),7.85 µM (inactive),6.37 µM (inactive),11.3 µM (inactive),4.66 µM (inactive),3.55 µM (inactive),8.22 µM (inactive),6.59 µM (inactive),2.6 µM (inactive),3.37 µM (inactive),5.33 µM,7.33 µM (inactive),2.82 µM (inactive)
C=C1CC(OC)(C(O)C(=O)N[C@H]2OCO[C@H]3C2O[C@H](C[C@@H](COC)OC)C(C)(C)C3OC)O[C@H](C)[C@@H]1C (stereo not given in full),< 0.00482 µM (active),< 0.00482 µM (active),< 0.00482 µM (active),< 0.00482 µM (active),< 0.00482 µM (active),< 0.00482 µM (active),< 0.00482 µM (active),< 0.00482 µM (active),< 0.00482 µM (active),< 0.00482 µM (active),< 0.00482 µM (active),< 0.00482 µM (active),< 0.00482 µM (active),< 0.00482 µM (active),< 0.00482 µM (active),< 0.00482 µM (active),< 0.00482 µM (active),< 0.00482 µM,< 0.00482 µM (active),< 0.00482 µM (active)
Cc1nc2cccc(F)c2c(=O)n1C1CCCCNC1=O (stereo not given),> 10 µM (inactive),> 10 µM (inactive),> 10 µM (inactive),> 10 µM (inactive),> 10 µM (inactive),> 10 µM (inactive),> 10 µM (inactive),> 10 µM (inactive),> 10 µM (inactive),> 10 µM (inactive),> 10 µM (inactive),> 10 µM (inactive),> 10 µM (inactive),> 10 µM (inactive),> 10 µM (inactive),> 10 µM (inactive),> 10 µM (inactive),> 10 µM,> 10 µM (inactive),> 10 µM (inactive)
COc1ccc(C2CC(c3sc(Nc4ccc(C)cc4)nc3C)=NN2)cc1 (stereo not given),15.8 µM (inactive),22.4 µM (inactive),14.8 µM (inactive),13.7 µM (inactive),12.8 µM (inactive),15.6 µM (inactive),14.8 µM (inactive),11.1 µM (inactive),14.1 µM (inactive),18.8 µM (inactive),15.7 µM (inactive),14.2 µM (inactive),8.34 µM (inactive),20.5 µM (inactive),15.5 µM (inactive),12.4 µM (inactive),14.9 µM (inactive),15.1 µM,15.5 µM (inactive),11.8 µM (inactive)
COC(=O)C(=O)C(C(C)=O)C(=O)C(=O)Nc1ccc(C)cc1C (stereo not given),> 100 µM (inactive),> 100 µM (inactive),> 100 µM (inactive),> 100 µM (inactive),> 100 µM (inactive),> 100 µM (inactive),> 100 µM (inactive),> 100 µM (inactive),> 100 µM (inactive),> 100 µM (inactive),> 100 µM (inactive),> 100 µM (inactive),> 100 µM (inactive),> 100 µM (inactive),> 100 µM (inactive),> 100 µM (inactive),> 100 µM (inactive),> 100 µM,> 100 µM (inactive),> 100 µM (inactive)
CC[C@@H]1C[C@@H]2CN3CCc4c([nH]c5ccc(OC)cc45)C(COC(=O)c4ccc(OC)c(OC)c4)(C2)C13,18.3 µM (inactive),22.6 µM (inactive),24.5 µM (inactive),21.2 µM (inactive),7.91 µM (inactive),33 µM (inactive),16.5 µM (inactive),14.3 µM (inactive),17.4 µM (inactive),14.6 µM (inactive),37.6 µM (inactive),16.8 µM (inactive),11.4 µM (inactive),53.5 µM (inactive),31.6 µM (inactive),16.1 µM (inactive),21.3 µM (inactive),18.4 µM,10.3 µM (inactive),7.82 µM (inactive)
CON(C)C(=O)C(Cc1ccccc1)NC(=O)OCc1ccccc1 (stereo not given),86.1 µM (inactive),> 100 µM (inactive),33.3 µM (inactive),> 100 µM (inactive),77.1 µM (inactive),> 100 µM (inactive),> 100 µM (inactive),> 100 µM (inactive),> 100 µM (inactive),> 100 µM (inactive),> 100 µM (inactive),71.4 µM (inactive),> 100 µM (inactive),> 100 µM (inactive),> 100 µM (inactive),> 100 µM (inactive),> 100 µM (inactive),> 100 µM,> 100 µM (inactive),> 100 µM (inactive)
O=NN(CCCl)C(=O)N[C@H]1CC[C@H](C(=O)O)CC1,> 100 µM (inactive),> 100 µM (inactive),> 80.2 µM (inactive),> 100 µM (inactive),> 100 µM (inactive),> 100 µM (inactive),35.8 µM (inactive),36.3 µM (inactive),> 100 µM (inactive),> 61.1 µM (inactive),> 61.1 µM (inactive),> 100 µM (inactive),5.32 µM (inactive),> 100 µM (inactive),> 100 µM (inactive),> 66.8 µM (inactive),44.6 µM (inactive),> 100 µM,> 100 µM (inactive),> 100 µM (inactive)
O=P(CCOc1ccccc1OCCP(=O)(c1ccccc1)c1ccc2c(c1)OCCOCCOCCOCCO2)(c1ccccc1)c1ccc2c(c1)OCCOCCOCCOCCO2 (stereo not given),> 100 µM (inactive),> 100 µM (inactive),> 100 µM (inactive),> 100 µM (inactive),> 100 µM (inactive),> 100 µM (inactive),> 100 µM (inactive),> 100 µM (inactive),> 100 µM (inactive),> 100 µM (inactive),> 100 µM (inactive),> 100 µM (inactive),> 100 µM (inactive),> 100 µM (inactive),> 100 µM (inactive),> 100 µM (inactive),> 100 µM (inactive),> 100 µM,> 100 µM (inactive),> 100 µM (inactive)
